According to publication PMC9655818, “Cytoprotective Polyketides from Sponge-Derived Fungus Lopadostoma pouzarii” (Molecules, 2022):

Key:
DPPH scavenging assay = conditions: for DPPH Radicals, % of Control: compounds at 100 µM, 30 min, absorbance 520 nm, mean ± SEM
Procedure: The compounds were dissolved in DMSO, and the solutions (120 µL) were dispensed into wells of a 96-well microplate. In all, 30 µL of the DPPH (Sigma-Aldrich, Steinheim, Germany) solution in MeOH (1.5 × 10^−4 M) was added to each well. The concentrations of the compounds in mixture were 10 and 100 µM. Pure DMSO was used as a control. The ascorbic acid was used as a positive control. The mixture was shaken and left to stand for 30 min, and the absorbance of the resulting solution was measured at 520 nm with a microplate reader MultiscanFC (ThermoLabsystems Inc., Beverly, MA, USA). The radical scavenging activity of all compounds at 100 µM was presented as a percent of the DMSO data.

CoCl2-treated H9c2 cells = test: Cardioprotective activity in CoCl2-mimic hypoxia; format: cell-based, rat; conditions: MTT
Procedure: The H9c2 cells were treated with a dH2O-solution of CoCl2 at a concentration of 500 µM for 2 h. Then, compounds at a concentration of 10 µM were added for 46 h. The viability of the H9c2 cells was measured by an MTT assay.

[1] = system: rat normal cardiomyocytes H9c2; test: Cell viability (MTT) assay, cytotoxic activity toward H9c2 cells; format: cell-based; conditions: 48 h
Procedure: (§1) The human cancer PC-3 cells were purchased from ATCC (Manassas, VA, USA). The rat cardiomyocytes H9c2 cells were kindly provided by Prof. Dr. Gunhild von Amsberg from Martini-Klinik Prostate Cancer Center, University Hospital Hamburg-Eppendorf, Hamburg, Germany.
(§2) The PC-3 and H9c2 cells were seeded at concentrations of 5 × 10^3 cell/well and 3 × 10^3 cell/well, respectively, and the experiments were started after 24 h. The compounds at concentrations up to 100 µM were added into the wells for 48 h, and the viability of the cells was measured by an MTT (3-(4,5-dimethylthiazol-2-yl)-2,5-diphenyltetrazolium bromide) assay, which was performed according to the manufacturer’s instructions (Sigma-Aldrich, Munich, Germany). All compounds were diisolved with DMSO so that the final concentration of DMSO in the cell culture was not more than 1%. Moreover, DMSO was used as a control.
(§3) The results were presented as a percent of the control data, and the concentration of the cell viability inhibition on 50% (IC50) was calculated.

[2] = system: human prostate cancer PC-3 cells; test: Cell viability (MTT) assay, cytotoxic activity toward PC-3 cells; format: cell-based; conditions: 48 h; for IC50: Homo sapiens, PC-3 cells; for decrease of PC-3 cell viability: concentration of 100 µM
Procedure: as §1, §2, §3

[3] = system: rotenone-treated H9c2 cells; test: Cardioprotective activity against rotenone-induced toxicity; format: cell-based, rat
Procedure: The H9c2 cells were treated with rotenone (0.1% DMSO solution) at a concentration of 10 µM for 1 h. Then, compounds at a concentration of 10 µM were added for 23 h. The viability of the H9c2 cells was measured by an MTT assay.

| SMILES | DPPH Radicals, % of Control (DPPH scavenging assay) | decrease of viability of H9c2 cells by CoCl2 treatment (CoCl2-treated H9c2 cells; CoCl2 500 µM) | IC50 [1] | IC50 [2] | decrease of PC-3 cell viability [2] | viability at 10 µM ([3]; Rattus norvegicus, H9c2, read-out: increase of viability of rotenone-treated H9c2 cells) | viability at 10 µM (CoCl2-treated H9c2 cells; Rattus norvegicus, H9c2, compound at 10 µM for 46 h after CoCl2 500 µM for 2 h, read-out: increase of viability of CoCl2-treated H9c2 cells) | decrease of the amount of DPPH radical (DPPH scavenging assay; concentration of 100 µM) | decrease of viability of H9c2 cells by rotenone treatment ([3]; rotenone 10 µM, MTT) |
| --- | --- | --- | --- | --- | --- | --- | --- | --- | --- |
| O=C1O[C@H]([C@@H](O)CO)C(O)=C1O [Ascorbic acid, ascorbic acid, reference compound] | 10.5 ± 3.2 % of Control | – | – | – | – | – | – | – | – |
| [Cl-].[Cl-].[Co+2] [CoCl2, cobalt chloride (II), reference compound] | – | 54.1% | – | – | – | – | – | – | – |
| COC1=C(OC)[C@@H](O)[C@](C)(O)[C@@H](C)C1=O [Compound 1, lopouzanone A] | 93.8 ± 0.5 % of Control | – | > 100 µM | > 100 µM | 27–32% | – | – | – | – |
| COC1=C(OC)C(O)C(C)(O)C(C)C1=O (centres unmarked) [Compound 2, lopouzanone B] | 100.2 ± 1.0 % of Control | – | > 100 µM | > 100 µM | 27–32% | – | – | – | – |
| COC1=C(OC)C(=O)C(C)C(C)C1=O (centres unmarked) [Compound 3, gliorosein] | 86.1 ± 1.8 % of Control | – | > 100 µM | 58.9 ± 1.5 µM | – | 16.6% | 23.5% | 13.9% | – |
| C[C@@H]1C/C=C/C(=O)C/C=C/[C@H](O)CC(=O)O1 [Compound 4, balticolid] | 98.6 ± 3.4 % of Control | – | > 100 µM | 38.9 ± 1.9 µM | – | – | – | – | – |
| C[C@@H]1C/C=C/[C@@H](O)C/C=C/[C@@H](O)CC(=O)O1 [Compound 5, dendrodolide G] | 98.9 ± 1.4 % of Control | – | > 100 µM | > 100 µM | 27–32% | – | – | – | – |
| C/C=C/C=C/C=C/[C@@H]1C[C@@H](O)[C@H](O)[C@H](O)[C@@H]1CO [Compound 8, dendrodochol B] | 99.4 ± 3.3 % of Control | – | > 100 µM | > 100 µM | 27–32% | – | – | – | – |
| C/C=C/C=C/C=C/[C@@H]1C[C@@H](OC(C)=O)[C@H](O)[C@H](O)[C@@H]1CO [Compound 9, 1-O-acetyl dendrodochol B] | 102.7 ± 1.8 % of Control | – | > 100 µM | > 100 µM | 27–32% | – | – | – | – |
| C=C(C)[C@H]1Cc2c(ccc3c2O[C@@H]2COc4cc(OC)c(OC)cc4[C@@H]2C3=O)O1 [rotenone, reference compound] | – | – | – | – | – | – | – | – | 32.1% |
